Eleven molecules from ChEMBL document CHEMBL1201862, “PubChem BioAssay data set” (2004) can be followed below.

Experiment in all cases: DTP human tumour cell line panel, 48 h
For test [1], the system named is ACHN.
Test [2] concerns UO-31.
The subject of test [3] is Malme-3M.
The test system of test [4] is HOP-92.
For test [5], the system named is SK-MEL-28.
Test [6] relates to UACC-62.
Test [7] relates to SK-OV-3.
Test [8] concerns HOP-62.
Test [9] relates to SK-MEL-5.
Test [10] deals with NCI-H522.
The subject of test [11] is HT-29.
The subject of test [12] is OVCAR-8.
Test [13] concerns OVCAR-5.
Test [14] has as its system UACC-257.
Test [15] deals with M14.
Test [16] has as its system NCI-H23.
The test system of test [17] is SF-268.
In test [18] the test system is SF-539.
The subject of test [19] is PC-3.

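Briefly, cells in 96-well plates were exposed to five compound concentrations for 48 h, and endpoints were estimated by linear interpolation. GI50: concentration for 50% inhibition of growth.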 Calls of active or inactive are those of the source. Cut-off read from the data, not from the text of the source: active = GI50 up to about 1.1 µM and inactive = higher. Bounds are passed on as bounds.

The term GI50 denotes the concentration at which growth is held to half of that of the control. `Cc1ccc(NC(=O)C(=O)C(C#N)c2ccccc2C)cc1C` (stereo not drawn): the GI50 in test [1], in test [2], in test [3], in [4], in test [5] and in [6] was > 100 µM (inactive) throughout. The GI50 in test [7] is > 100 µM (inactive); in test [8], > 100 µM (inactive); in [9], > 100 µM (inactive); in test [10], > 92.5 µM (inactive); in test [11], > 100 µM (inactive); in test [12], > 100 µM (inactive). Besides, the GI50 in [13], in test [14], in [15], in test [16], in test [17] and in test [18] was > 100 µM (inactive) each time.
As to `O=C1C[C@H](c2ccc(O)c(O)c2)Oc2cc(O)cc(O)c21`, the GI50 in [1] is 65.8 µM (inactive); in [2] it was 29.8 µM (inactive); in test [3], 87.1 µM (inactive); in test [4] it was 56.8 µM (inactive); in test [5], 90.6 µM (inactive); in test [6], 61.7 µM (inactive). In addition, the GI50 is > 100 µM (inactive) in [7]; > 100 µM (inactive) in test [8]; > 100 µM (inactive) in test [9]; 11.6 µM (inactive) in test [10]; > 100 µM (inactive) in [11]; > 100 µM (inactive) in [12]. Besides, the GI50 was > 100 µM (inactive) in test [13]; > 100 µM (inactive) in test [14]; > 100 µM (inactive) in test [15]; > 100 µM (inactive) in test [16]; 63.5 µM (inactive) in test [17]; > 100 µM (inactive) in test [18].
`COc1ccc(CC#C/C=C/C(=O)NCC(C)C)cc1`: the GI50 in [1], in [2], in test [3], in test [4], in test [5] and in test [6] was > 100 µM (inactive) throughout. Also, the GI50 in test [7], in [9], in test [10], in [11], in [12] and in test [13] was > 100 µM (inactive) in each case. Besides, the GI50 in test [14], in test [15], in test [16], in test [17] and in test [18] was > 100 µM (inactive) throughout.
`CCS/C(=N\c1ccccc1)SC`: the GI50 in test [1], in test [2], in [3], in test [4], in test [5] and in test [6] was > 100 µM (inactive) throughout. Also, the GI50 in test [7], in test [8], in [9], in [10], in test [11] and in test [12] was > 100 µM (inactive) each time. The GI50 in test [13], in test [14], in [15], in test [16], in test [17] and in test [18] was > 100 µM (inactive) in each case.
In the case of `CC(=O)C1=C(C)NC2C=CC=CN12` (stereo not drawn), the GI50 in test [1], in [2], in test [3], in test [4], in test [5] and in [6] was > 100 µM (inactive) each time. Also, the GI50 in test [7], in [8], in [9], in test [10], in test [11] and in test [12] was > 100 µM (inactive) in each case. The GI50 in [13], in test [14], in test [15], in test [16], in test [17] and in test [18] was > 100 µM (inactive) throughout.
With `Cc1ccc(C(=O)N/N=C(\N=N\c2cccc([N+](=O)[O-])c2)c2ccc(N(C)C)cc2)cc1`, the GI50 in test [2] is 61.2 µM (inactive); in [4], > 100 µM (inactive); in test [5], > 100 µM (inactive); in [19], > 100 µM (inactive); in test [9], 25.7 µM (inactive); in test [10], 37.2 µM (inactive). In addition, the GI50 in test [11] was 46.5 µM (inactive); in test [12] it was 97.1 µM (inactive); in test [13], > 100 µM (inactive); in test [14] it was 58.3 µM (inactive); in [15], 29.2 µM (inactive); in [16] it was > 100 µM (inactive). For the same molecule, the GI50 in [17] and in [18] was > 100 µM (inactive) throughout.
`N#CC(/C(CCCC(=O)Nc1cccc([N+](=O)[O-])c1)=N/NC(=O)c1cc2ccccc2cc1O)c1ccccc1` (stereo not drawn): the GI50 in test [1] was 34.3 µM (inactive); in test [2] it was 6.56 µM (inactive); in test [3], 67.1 µM (inactive); in [4] it was 29.8 µM (inactive); in test [5], > 100 µM (inactive); in [6] it was 15.8 µM (inactive). Further, the GI50 in test [7] is 61.8 µM (inactive); in [8] it was 60.7 µM (inactive); in [9], 21.2 µM (inactive); in test [10], 23.1 µM (inactive); in [11], 36.4 µM (inactive); in test [12], 17.5 µM (inactive). Besides, the GI50 in test [13] is 36.5 µM (inactive); in [14], 24.4 µM (inactive); in [15], 16.3 µM (inactive); in [16], 20 µM (inactive); in test [17], 48.1 µM (inactive); in test [18] it was 27.4 µM (inactive).
As to `COc1cc2c(cc1OC)C(C(CBr)CBr)N(C1CCCC1)CC2` (stereo not drawn), the GI50 in [1] is > 100 µM (inactive); in test [2], > 100 µM (inactive); in test [3], > 100 µM (inactive); in [4], 41.3 µM (inactive); in [5], > 100 µM (inactive); in test [6], > 100 µM (inactive). Moreover, the GI50 in [7], in test [8], in test [9], in test [10], in test [11] and in [12] was > 100 µM (inactive) throughout. For the same molecule, the GI50 in [13], in test [14], in [15], in test [16], in test [17] and in test [18] was > 100 µM (inactive) each time.
As to `COC(=O)N/N=C/c1oc(-c2ccccc2)c(-c2ccccc2)c1[N+](=O)[O-]`, the GI50 in test [1], in test [2], in test [3], in test [4], in test [5] and in test [6] was > 100 µM (inactive) throughout. Also, the GI50 in test [7], in test [8], in [9], in test [10], in [11] and in [12] was > 100 µM (inactive) each time. Also, the GI50 in [13], in test [14], in test [15], in test [16], in test [17] and in [18] was > 100 µM (inactive) each time.
As to `COC1=CC(C2c3cc4c(cc3[C@@H](Nc3ccc([N+](=O)[O-])cc3)C3COC(=O)[C@H]23)OCO4)=CC(=O)C1=O` (stereo partly drawn), the GI50 was 0.912 µM (active) in test [1]; 6.24 µM (inactive) in test [2]; 4.46 µM (inactive) in test [3]; 1.52 µM (inactive) in test [4]; 14.8 µM (inactive) in test [5]; 2.18 µM (inactive) in test [6]. Moreover, the GI50 in test [7] was 2.48 µM (inactive); in [8], 0.646 µM (active); in [9], 3.48 µM (inactive); in test [10] it was 2.58 µM (inactive); in test [11], 7.21 µM (inactive); in test [12] it was 4.25 µM (inactive). The GI50 in test [13] was 5.53 µM (inactive); in test [14], 16.1 µM (inactive); in test [15], 3.29 µM (inactive); in [16] it was 1.64 µM (inactive); in [17], 2.53 µM (inactive); in test [18], 1.82 µM (inactive).
As to `COC(=O)C[S+]([O-])c1ccccc1` (stereo not drawn), the GI50 in test [1] was 33.7 µM (inactive); in [2], 4.63 µM (inactive); in test [3] it was > 100 µM (inactive); in test [4], 17.6 µM (inactive); in test [5], 29.8 µM (inactive); in test [6], 29.2 µM (inactive). Besides, the GI50 was 60.7 µM (inactive) in [7]; 32.6 µM (inactive) in test [8]; 25.4 µM (inactive) in test [9]; 13.8 µM (inactive) in test [10]; 36.6 µM (inactive) in test [11]; 27.5 µM (inactive) in test [12]. Moreover, the GI50 in [13] was 68.4 µM (inactive); in test [14], 60.4 µM (inactive); in [15], 37.3 µM (inactive); in [16], 35 µM (inactive); in [17], 14 µM (inactive); in [18], 20.9 µM (inactive).
